Measurements as given in the supplement of paper PMC7295968.
± gives the standard deviation of the averaged measurements.

How the values were obtained:
[1] = system: THP-1 (vitamin D3 differentiated); assay: cAMP EC50 (HTRF); higher = lower potency; details: 20 min
Description: (§1)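 Vitamin-D3-differentiated THP-1 cells were treated 4 h with compounds (1:10 serial dilutions, top 100 uM). Two 8-gene QuantiGene Plex signatures were read out as TBP-normalised rscores; the cos_weight_AC signature score (% of 10 uM isoproterenol active control) was fitted by 4PL/nonparametric fit to give EC50, with constant fits assigned one log unit outside the tested range. cAMP EC50s come from a 20 min HTRF assay with IBMX at 37 °C, fitted with the same algorithm.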

[2] = system: THP-1 (vitamin D3 differentiated); assay: EC50 of beta-agonist gene-signature score cos_weight_AC (signature02); details: 4 h
Description: as §1

[3] = system: THP-1 (vitamin D3 differentiated); assay: EC50 of beta-agonist gene-signature score cos_weight_AC (signature01); details: 4 h
Description: as §1

Row | SMILES | cAMP EC50 [1] | EC50 [2] | EC50 [3]
1 | CC(Cc1ccc(OCC(=O)O)cc1)NCC(O)c1cccc(Cl)c1 (centres undefined) | 50.1 ± 31 nM | 167 nM | 421 nM
2 | Cn1cc(C(F)(F)F)nc1-c1ccc(OCC(O)CNCCOc2ccc(O)c(C(N)=O)c2)cc1 (centres undefined) | > 100000 nM | > 100000 nM | > 100000 nM
3 | O=c1ccc2c([C@@H](O)CNCCCCCCOCC(F)(F)c3ccccc3)ccc(O)c2[nH]1 [Abediterol] | < 0.01 nM | < 0.01 nM | < 0.01 nM
4 | CNC[C@H](O)c1ccc(O)c(O)c1 [Adrenaline] | – | 68.1 nM | 64.7 nM
5 | COc1cc(NC(=O)CCN2CCC(OC(=O)Nc3ccccc3-c3ccccc3)CC2)c(Cl)cc1CNC[C@H](O)c1ccc(O)c2[nH]c(=O)ccc12 [Batefenterol] | – | – | 0.265 nM
6 | CC(CCc1ccc(O)cc1)NCCc1ccc(O)c(O)c1 (centres undefined) [Dobutamine] | 1.38 ± 0.91 nM | – | 8.15 nM
7 | Oc1ccc(CCNCCCCCCNCCc2ccccc2)cc1O [Dopexamine] | 13900 ± 12000 nM | – | –
8 | CC(Cc1ccc(O)cc1)NCC(O)c1cc(O)cc(O)c1 (centres undefined) [Fenoterol] | 1.75 ± 1.5 nM | 3.65 nM | 8.21 nM
9 | COc1ccc(CC(C)NCC(O)c2ccc(O)c(NC=O)c2)cc1 (centres undefined) [Formoterol] | 0.0101 nM | 0.108 nM | 0.254 nM
10 | C=C[C@@]1(C)CC(=O)[C@]2(O)[C@@]3(C)[C@@H](O)CCC(C)(C)[C@@H]3[C@H](O)[C@H](OC(C)=O)[C@@]2(C)O1 [Forskolin] | – | 2310 nM | 2770 nM
11 | CCC(NC(C)C)C(O)c1ccc(O)c(O)c1 (centres undefined) [Isoetharine] | – | 48.4 nM | 32.1 nM
12 | CC(C)NCC(O)c1cc(O)cc(O)c1 (centres undefined) [Metaproterenol] | 5.17 ± 2.3 nM | – | 21.6 nM
13 | CNCCc1cnc[nH]1 [N-alpha-methylhistamine] | 180 ± 26 nM | 234 nM | 248 nM
14 | NC[C@H](O)c1ccc(O)c(O)c1 [Norepinephrine] | 0.42 ± 0.14 nM | 6.13 nM | 1.46 nM
15 | COc1ccc(CC(C)(C)NC[C@H](O)c2cc(O)cc3c2OCC(=O)N3)cc1 [Olodaterol] | – | 0.127 nM | 2.88 nM
16 | CCC(NC(C)C)C(O)c1ccc(O)c2[nH]c(=O)ccc12 (centres undefined) [Procaterol] | – | 0.703 nM | –
17 | CC(NCCc1ccc(O)cc1)C(O)c1ccc(O)cc1 (centres undefined) [Ritodrine] | 624 ± 160 nM | 294 nM | 295 nM
18 | CC(C)(C)NCC(O)c1ccc(O)c(CO)c1 (centres undefined) [Salbutamol] | 10.6 ± 9.1 nM | 64.6 nM | 98.5 nM
19 | CC(C)(C)NCC(O)c1cc(O)cc(O)c1 (centres undefined) [Terbutaline] | 349 ± 260 nM | 230 nM | 216 nM
20 | COc1cc(C[C@@H]2NCCc3cc(O)c(O)cc32)cc(OC)c1OC [Tretoquinol] | – | – | 0.237 nM
21 | CC(C)(C)NCC(O)c1ccccc1Cl (centres undefined) [Tulobuterol] | 32.1 ± 20 nM | 215 nM | –
22 | OCc1cc([C@@H](O)CNCCCCCCOCCOCc2c(Cl)cccc2Cl)ccc1O [Vilanterol] | < 0.01 nM | 5.86 nM | 5.65 nM
23 | CC(C)(Cc1ccccc1)NCC(O)c1ccc(O)c(NS(C)(=O)=O)c1 (centres undefined) [Zinterol] | < 0.01 nM | 0.567 nM | 3.48 nM
